# Tests used:
# [1] = system: Mus musculus; settings: oral
# [2] = system: Mus musculus; settings: developmental, oral
# [3] = short-term, duration: 13 days, drinking water, F, C57BL/6, spleen: spleen CD8+ cells
# [4] = short-term, duration: 14 days, gavage, M, BALB/c, relative mRNA expression of IL-1beta in spleen + thymus: apoptosis in thymus cells
# [5] = short-term, duration: 14 days, gavage, M, BALB/c, relative mRNA expression of IL-1beta in thymus + spleen: apoptosis in spleen cells
# [6] = short-term, duration: 14 days, gavage, M, Kunming, COX-2 in liver tissue
# [7] = short-term, duration: 14 days, gavage, M, Kunming, CRP in liver tissue + liver: IL-6 levels
# [8] = short-term, duration: 15 days, drinking water, F, C57BL/6, IgG antibody titer (SRBC) + IgM antibody titer (SRBC) + spleen: spleen: absolute weight + spleen: spleen: relative weight
# [9] = short-term, duration: 15 days, drinking water, F, C57BL/6, IgM antibody titer (DNP)
# [10] = short-term, duration: 15 days, drinking water, F, C57BL/6, IgM antibody titer (SRBC) + spleen: spleen: relative weight
# [11] = short-term, duration: 15 days, drinking water, F, C57BL/6, spleen: spleen: absolute weight + spleen: spleen: relative weight + thymus: thymus: absolute weight + thymus: thymus: relative weight
# [12] = short-term, duration: 15 days, drinking water, F, IgM antibody titer (SRBC)
# [13] = short-term, duration: 21 days, drinking water, M, ICR, cytokine mRNA for IL-1 beta in spleen (relative to beta-actin) + expression of c-myc in thymus (relative to beta-actin) + mean body weight…
# [14] = short-term, duration: 21 days, drinking water, M, ICR, cytokine mRNA for IL-6 in spleen (relative to beta-actin) + cytokine mRNA for TNF-alpha in spleen (relative to beta-actin) + expression of c…
# [15] = short-term, duration: 28 days, gavage, M, BALB/c, testes: TNFa in testes
# [16] = short-term, duration: 29 days, gavage, M, Crl:CD-1 (ICR) BR, IgM antibody titer (SRBC) + mean serum corticosterone + spleen: spleen: absolute weight + spleen: total number of splenocytes + thymus: …
# [17] = short-term, duration: 29 days, gavage, M, Crl:CD-1 (ICR) BR, spleen: spleen: relative weight
# [18] = subchronic, duration: 6 weeks, gavage, M, 129/SV, relative mRNA expression of TNF alpha/GAPDH in liver
# [19] = subchronic, duration: 6 weeks, gavage, M, relative mRNA expression of TNF alpha/GAPDH in liver
compound,measurement,setting,value
O=C([O-])C(F)(F)C(F)(F)C(F)(F)C(F)(F)C(F)(F)C(F)(F)C(F)(F)F.[NH4+] [Ammonium perfluorooctanoate],NOEL,"[1]; short-term, duration: 10 days, drinking water, F, C57BL/6, spleen B220+ cells + spleen: spleen CD4+ cells + spleen: spleen CD8+ cells + spleen: spleen cellularity + spleen: spleen DN (CD4-/CD8-) …",7.5 mg/kg-day
same,NOEL,"[1]; short-term, duration: 10 days, gavage, F, C57BL/6, IgG antibody titer (SRBC) + spleen: spleen: absolute weight + spleen: spleen: relative weight + thymus: thymus: absolute weight + thymus: …",30 mg/kg-day
same,LOEL,"[1]; short-term, duration: 10 days, gavage, F, C57BL/6, IgM antibody titer (SRBC) + spleen: spleen: absolute weight + spleen: spleen: relative weight + thymus: thymus: absolute weight + thymus: …",30 mg/kg-day
same,NOEL,"[1]; short-term, duration: 13 days, drinking water, F, C57BL/6, spleen: spleen B220+ cells + spleen: spleen CD4+ cells + spleen: spleen cellularity + spleen: spleen DP (CD4+/CD8+) cells + spleen: spleen …",7.5 mg/kg-day
same,LOEL,[1]; [3],7.5 mg/kg-day
same,NOEL,[1]; [3],3.75 mg/kg-day
same,LOEL,"[1]; short-term, duration: 13 days, drinking water, F, C57BL/6, spleen: spleen DN (CD4-/CD8-) cells",3.75 mg/kg-day
same,LOEL,"[1]; short-term, duration: 14 days, gavage, M, BALB/c, change in body weight + spleen: apoptosis in spleen cells + spleen: spleen: relative weight + thymus: thymus: relative weight",5 mg/kg-day
same,NOEL,"[1]; short-term, duration: 14 days, gavage, M, BALB/c, relative mRNA expression of IL-1beta in spleen + relative mRNA expression of IL-1beta in thymus",20 mg/kg-day
same,LOEL,[1]; [4],10 mg/kg-day
same,NOEL,[1]; [4],5 mg/kg-day
same,LOEL,[1]; [5],20 mg/kg-day
same,NOEL,[1]; [5],10 mg/kg-day
same,LOEL,[1]; [6],5 mg/kg-day
same,NOEL,[1]; [6],2.5 mg/kg-day
same,LOEL,[1]; [7],10 mg/kg-day
same,NOEL,[1]; [7],5 mg/kg-day
same,LOEL,"[1]; short-term, duration: 14 days, gavage, M, Kunming, liver: Cox-2 levels + liver: CRP levels + liver: IL-6 levels",10 mg/kg-day
same,LOEL,"[1]; short-term, duration: 14 days, gavage, M, Kunming, liver: IL-6 levels + liver: TNF-alpha levels",10 mg/kg-day
same,LOEL,[1]; [8],25 mg/L
same,NOEL,[1]; [8],12.5 mg/L
same,LOEL,[1]; [9],1.88 mg/kg-day
same,NOEL,[1]; [9],0.94 mg/kg-day
same,LOEL,[1]; [10],30 mg/kg-day
same,NOEL,[1]; [10],7.5 mg/kg-day
same,NOEL,"[1]; short-term, duration: 15 days, drinking water, F, C57BL/6, spleen: spleen B220+ cells + spleen: spleen cellularity + spleen: spleen DN (CD4-/CD8-) cells + spleen: spleen DP (CD4+/CD8+) cells",7.5 mg/kg-day
same,LOEL,"[1]; short-term, duration: 15 days, drinking water, F, C57BL/6, spleen: spleen CD4+ cells + spleen: spleen CD8+ cells + spleen: spleen NK 1.1 cells",3.75 mg/kg-day
same,LOEL,[1]; [11],100 mg/L
same,NOEL,[1]; [11],50 mg/L
same,NOEL,"[1]; short-term, duration: 15 days, drinking water, F, C57BL/6, spleen: spleen: absolute weight + spleen: spleen: relative weight + thymus: thymus: relative weight",200 mg/L
same,LOEL,"[1]; short-term, duration: 15 days, drinking water, F, C57BL/6, thymus: thymus: relative weight",7.5 mg/kg-day
same,LOEL,[1]; [12],30 mg/kg-day
same,NOEL,[1]; [12],7.5 mg/kg-day
same,NOEL,"[1]; short-term, duration: 15 days, drinking water, F, spleen: spleen: relative weight + thymus: thymus: relative weight",30 mg/kg-day
same,NOEL,"[1]; short-term, duration: 15 days, gavage, F, C57BL/6, IgG antibody titer (SRBC) + spleen: spleen: absolute weight + spleen: spleen: relative weight + thymus: thymus: absolute weight + thymus: …",30 mg/kg-day
same,LOEL,"[1]; short-term, duration: 15 days, gavage, F, C57BL/6, IgM antibody titer (SRBC) + spleen: spleen: absolute weight + spleen: spleen: relative weight + thymus: thymus: absolute weight + thymus: …",30 mg/kg-day
same,NOEL,"[1]; short-term, duration: 16 days, diet, M, C57BL/6, - HRBC IgG1: 160 reciprocal serum dilution + - HRBC IgG1: 320 reciprocal serum dilution + - HRBC IgG1: 40 reciprocal serum dilution + - HRBC…",0.02%
same,LOEL,"[1]; short-term, duration: 16 days, diet, M, C57BL/6, IgG1 antibody-producing cells (HRBC) + IgG2b antibody-producing cells (HRBC) + IgG3 antibody-producing cells (HRBC) + IgM antibody-producing…",200 mg/kg-day
same,LOEL,"[1]; short-term, duration: 16 days, diet, M, C57BL/6, IgG1 antibody-secreting cells (HRBC) + IgG1 antibody level (HRBC 1:160) + IgG1 antibody level (HRBC 1:20) + IgG1 antibody level (HRBC 1:80…",0.02%
same,LOEL,[1]; [13],17.6 mg/kg-day
same,NOEL,[1]; [13],2.64 mg/kg-day
same,LOEL,[1]; [14],47.2 mg/kg-day
same,NOEL,[1]; [14],17.6 mg/kg-day
same,NOEL,"[1]; short-term, duration: 21 days, drinking water, M, ICR, cytokine mRNA for IL-6 in thymus (relative to beta-actin) + cytokine mRNA for TNF-alpha in thymus (relative to beta-actin) + cytokine mRNA …",47.2 mg/kg-day
same,LOEL,"[1]; short-term, duration: 21 days, drinking water, M, ICR, spleen: spleen CD8+ cells + spleen: spleen DN (CD4-CD8-) cells + spleen: spleen DP (CD4+CD8+) cells",0.49 mg/kg-day
same,LOEL,"[1]; short-term, duration: 23 days, gavage, M, Crl:CD-1 (ICR) BR, IgM antibody titer (SRBC) + spleen: spleen: absolute weight + spleen: spleen: relative weight + spleen: total number of splenocytes + thymus…",30 mg/kg-day
same,NOEL,"[1]; short-term, duration: 23 days, gavage, M, Crl:CD-1 (ICR) BR, mean serum corticosterone + spleen: incidence of spleen hematopoiesis + spleen: spleen: relative weight",30 mg/kg-day
same,LOEL,[1]; [15],5 mg/kg-day
same,NOEL,[1]; [15],1.25 mg/kg-day
same,LOEL,[1]; [16],10 mg/kg-day
same,NOEL,[1]; [16],1 mg/kg-day
same,LOEL,[1]; [17],1 mg/kg-day
same,NOEL,[1]; [17],0.3 mg/kg-day
same,LOEL,[1]; [18],5 mg/kg-day
same,NOEL,[1]; [18],1 mg/kg-day
same,LOEL,[1]; [19],5 mg/kg-day
same,NOEL,[1]; [19],1 mg/kg-day
same,LOAEL,"[2]; duration: 1 days, M, CD1, Developmental: Decreased spontaneous activity and altered response to cholinergic stimulant",0.58 mg/kg-day
same,LOAEL,"[2]; duration: 10 days, F, CD1, Developmental: Altered mammary gland development in female pups / reduced pup weight on PND 20",5 mg/kg-day
same,LOAEL,"[2]; duration: 10 days, F, CD1, Developmental: Delayed mammary gland development (30-60%) in female pups on PNDs 1-10 + Reproductive: Immature mammary gland morphology in …",5 mg/kg-day
same,NOAEL,"[2]; duration: 10 days, F, CD1, Hepatic: 40-120% increased relative liver weight in lactating dams on PNDs 1-10",5 mg/kg-day
same,LOAEL,"[2]; duration: 11 days, F, CD1, Developmental: Delayed mammary gland development (31-47%) in female pups on PNDs 22-32 and at 18 months",5 mg/kg-day
same,LOAEL,"[2]; duration: 11 days, F, CD1, Developmental: Reduced pup body weight at weaning, 43% in males and 35% in females",5 mg/kg-day
same,NOAEL,"[2]; duration: 12 days, F",1 mg/kg-day
same,LOAEL,"[2]; duration: 12 days, F, Developmental: 7-10% decrease in litter weight on PND 2",0.5 mg/kg-day
